# Results from PubChem BioAssay AID2060484 (Molecular Pharmacology Branch, DTP, NCI, 2025).
# Test system: SUM149PT spheroids with HUVEC/MSC, viability
# Experiment: Anticancer human tumor SUM149PT cell line growth inhibition [GQUAD];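 further: spheroids exposed to drugs for seven days before readout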;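 on viability, T/C: percent viability relative to DMSO vehicle control taken as 100%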
# Conditions: for IC50: curve of first compound; for viability, T/C: stronger effect = lower value
# How it was run: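 Tumor cells were grown as complex spheroids with HUVEC endothelial cells and mesenchymal stem cells as stroma. G-quadruplex stabilizers were combined with targeted agents over half-log dilutions from near the clinical Cmax, or from 10 microM.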
# [1] = second compound 0.0316 µM, first compound 0.0316 µM
# [2] = second compound 0.0316 µM, first compound 0.1 µM
# [3] = second compound 0.0316 µM, first compound 0.316 µM
# [4] = second compound 0.0316 µM, first compound 1 µM
# [5] = second compound 0.0316 µM, first compound 3.16 µM
# [6] = second compound 0.0316 µM, first compound 10 µM
# [7] = second compound 0.1 µM, first compound 0.0316 µM
# [8] = second compound 0.1 µM, first compound 0.1 µM
# [9] = second compound 0.1 µM, first compound 0.316 µM
# [10] = second compound 0.1 µM, first compound 1 µM
# [11] = second compound 0.1 µM, first compound 3.16 µM
# [12] = second compound 0.1 µM, first compound 10 µM
# [13] = second compound 0.316 µM, first compound 0.0316 µM
# [14] = second compound 0.316 µM, first compound 0.1 µM
# [15] = second compound 0.316 µM, first compound 0.316 µM
# [16] = second compound 0.316 µM, first compound 1 µM
# [17] = second compound 0.316 µM, first compound 3.16 µM
# [18] = second compound 0.316 µM, first compound 10 µM
# [19] = second compound 1 µM, first compound 0.0316 µM
# [20] = second compound 1 µM, first compound 0.1 µM
# [21] = second compound 1 µM, first compound 0.316 µM
# [22] = second compound 1 µM, first compound 1 µM
# [23] = second compound 1 µM, first compound 3.16 µM
# [24] = second compound 1 µM, first compound 10 µM
# [25] = second compound 3.16 µM, first compound 0.0316 µM
# [26] = second compound 3.16 µM, first compound 0.1 µM
# [27] = second compound 3.16 µM, first compound 0.316 µM
# [28] = second compound 3.16 µM, first compound 1 µM
# [29] = second compound 3.16 µM, first compound 3.16 µM
# [30] = second compound 3.16 µM, first compound 10 µM
# [31] = second compound 10 µM, first compound 0.0316 µM
# [32] = second compound 10 µM, first compound 0.1 µM
# [33] = second compound 10 µM, first compound 0.316 µM
# [34] = second compound 10 µM, first compound 1 µM
# [35] = second compound 10 µM, first compound 3.16 µM
# [36] = second compound 10 µM, first compound 10 µM
structure (smiles),measurement,setting,value
CC1COCCN1c1cc(C2(S(C)(=N)=O)CC2)nc(-c2ccnc3[nH]ccc23)n1 (stereo not drawn) + Cc1[nH]c2ccc(F)cc2c1-c1nc2c3cccnc3c3ncccc3c2[nH]1,IC50,second compound 0.0316 µM,2380 nM
same,IC50,second compound 0.1 µM,2650 nM
same,IC50,second compound 0.316 µM,2830 nM
same,IC50,second compound 1 µM,2630 nM
same,IC50,second compound 3.16 µM,2450 nM
same,IC50,second compound 10 µM,2170 nM
same,"viability, T/C",[1],95.9%
same,"viability, T/C",[2],93.6%
same,"viability, T/C",[3],99.7%
same,"viability, T/C",[4],79.5%
same,"viability, T/C",[5],40.5%
same,"viability, T/C",[6],17.3%
same,"viability, T/C",[7],112%
same,"viability, T/C",[8],99.5%
same,"viability, T/C",[9],86.7%
same,"viability, T/C",[10],89.2%
same,"viability, T/C",[11],41.9%
same,"viability, T/C",[12],22.6%
same,"viability, T/C",[13],103%
same,"viability, T/C",[14],105%
same,"viability, T/C",[15],89.8%
same,"viability, T/C",[16],83.6%
same,"viability, T/C",[17],45%
same,"viability, T/C",[18],20.6%
same,"viability, T/C",[19],91.9%
same,"viability, T/C",[20],100%
same,"viability, T/C",[21],97.1%
same,"viability, T/C",[22],83.9%
same,"viability, T/C",[23],43.5%
same,"viability, T/C",[24],19.6%
same,"viability, T/C",[25],86.5%
same,"viability, T/C",[26],84.9%
same,"viability, T/C",[27],89.7%
same,"viability, T/C",[28],75.4%
same,"viability, T/C",[29],42.8%
same,"viability, T/C",[30],19%
same,"viability, T/C",[31],103%
same,"viability, T/C",[32],96.5%
same,"viability, T/C",[33],94.3%
same,"viability, T/C",[34],79.5%
same,"viability, T/C",[35],35.6%
same,"viability, T/C",[36],18.3%
COc1ccc([C@@H](O)c2cc(-c3ncnc4cc(N5CCOCC5)ccc34)c(F)cc2Cl)nn1 + Cc1[nH]c2ccc(F)cc2c1-c1nc2c3cccnc3c3ncccc3c2[nH]1,IC50,second compound 0.0316 µM,761 nM
same,IC50,second compound 0.1 µM,1070 nM
same,IC50,second compound 0.316 µM,1130 nM
same,IC50,second compound 1 µM,1160 nM
same,IC50,second compound 3.16 µM,1050 nM
same,IC50,second compound 10 µM,874 nM
same,"viability, T/C",[1],95.7%
same,"viability, T/C",[2],90.1%
same,"viability, T/C",[3],65.6%
same,"viability, T/C",[4],45.8%
same,"viability, T/C",[5],29.9%
same,"viability, T/C",[6],23.9%
same,"viability, T/C",[7],92.9%
same,"viability, T/C",[8],92.9%
same,"viability, T/C",[9],79.3%
same,"viability, T/C",[10],52.3%
same,"viability, T/C",[11],29.4%
same,"viability, T/C",[12],27.6%
same,"viability, T/C",[13],104%
same,"viability, T/C",[14],87.3%
same,"viability, T/C",[15],83%
same,"viability, T/C",[16],47.1%
same,"viability, T/C",[17],39.4%
same,"viability, T/C",[18],28.7%
same,"viability, T/C",[19],102%
same,"viability, T/C",[20],102%
same,"viability, T/C",[21],82.9%
same,"viability, T/C",[22],52.4%
same,"viability, T/C",[23],32.5%
same,"viability, T/C",[24],23.9%
same,"viability, T/C",[25],95.2%
same,"viability, T/C",[26],78.9%
same,"viability, T/C",[27],76.7%
same,"viability, T/C",[28],49.8%
same,"viability, T/C",[29],31.8%
same,"viability, T/C",[30],25.9%
same,"viability, T/C",[31],89.8%
same,"viability, T/C",[32],82.6%
same,"viability, T/C",[33],71.7%
same,"viability, T/C",[34],46.3%
same,"viability, T/C",[35],30.9%
same,"viability, T/C",[36],23.3%
Cc1cccc(N(C)C(=O)C2C(O)CCN2c2nc(C)cc(C(F)(F)F)c2C#N)c1 (stereo not drawn) + Cc1[nH]c2ccc(F)cc2c1-c1nc2c3cccnc3c3ncccc3c2[nH]1,IC50,second compound 0.0316 µM,> 10000 nM
same,IC50,second compound 0.1 µM,> 10000 nM
same,IC50,second compound 0.316 µM,> 10000 nM
same,IC50,second compound 1 µM,> 10000 nM
same,IC50,second compound 3.16 µM,> 10000 nM
same,IC50,second compound 10 µM,> 10000 nM
same,"viability, T/C",[1],98.2%
same,"viability, T/C",[2],92.6%
same,"viability, T/C",[3],105%
same,"viability, T/C",[4],95.4%
same,"viability, T/C",[5],96.5%
same,"viability, T/C",[6],92.6%
same,"viability, T/C",[7],102%
same,"viability, T/C",[8],101%
same,"viability, T/C",[9],104%
same,"viability, T/C",[10],96.7%
same,"viability, T/C",[11],98%
same,"viability, T/C",[12],99%
same,"viability, T/C",[13],97.8%
same,"viability, T/C",[14],94.7%
same,"viability, T/C",[15],96%
same,"viability, T/C",[16],97.3%
same,"viability, T/C",[17],96.1%
same,"viability, T/C",[18],95.5%
same,"viability, T/C",[19],97.3%
same,"viability, T/C",[20],102%
same,"viability, T/C",[21],91.1%
same,"viability, T/C",[22],98%
same,"viability, T/C",[23],91.2%
same,"viability, T/C",[24],108%
same,"viability, T/C",[25],96.5%
same,"viability, T/C",[26],102%
same,"viability, T/C",[27],105%
same,"viability, T/C",[28],105%
same,"viability, T/C",[29],106%
same,"viability, T/C",[30],102%
same,"viability, T/C",[31],92.5%
same,"viability, T/C",[32],93%
same,"viability, T/C",[33],105%
same,"viability, T/C",[34],84.8%
same,"viability, T/C",[35],103%
same,"viability, T/C",[36],96.7%
O=C(c1cc(Cc2n[nH]c(=O)c3ccccc23)ccc1F)N1CCN(C(=O)C2CC2)CC1 + Cc1[nH]c2ccc(F)cc2c1-c1nc2c3cccnc3c3ncccc3c2[nH]1,IC50,second compound 0.0316 µM,> 10000 nM
same,IC50,second compound 0.1 µM,> 10000 nM
same,IC50,second compound 0.316 µM,> 10000 nM
same,IC50,second compound 1 µM,> 10000 nM
same,IC50,second compound 3.16 µM,> 10000 nM
same,IC50,second compound 10 µM,> 10000 nM
same,"viability, T/C",[1],105%
same,"viability, T/C",[2],97.4%
same,"viability, T/C",[3],98.5%
same,"viability, T/C",[4],103%
same,"viability, T/C",[5],93.2%
same,"viability, T/C",[6],80.3%
same,"viability, T/C",[7],102%
same,"viability, T/C",[8],96.8%
same,"viability, T/C",[9],96.5%
same,"viability, T/C",[10],99.8%
same,"viability, T/C",[11],108%
same,"viability, T/C",[12],76.9%
same,"viability, T/C",[13],93.8%
same,"viability, T/C",[14],95.1%
same,"viability, T/C",[15],103%
same,"viability, T/C",[16],111%
same,"viability, T/C",[17],96.6%
same,"viability, T/C",[18],74.8%
same,"viability, T/C",[19],99.9%
same,"viability, T/C",[20],97.6%
same,"viability, T/C",[21],108%
same,"viability, T/C",[22],100%
same,"viability, T/C",[23],100%
same,"viability, T/C",[24],69.2%
same,"viability, T/C",[25],89.9%
same,"viability, T/C",[26],96.4%
same,"viability, T/C",[27],98.4%
same,"viability, T/C",[28],99.6%
same,"viability, T/C",[29],95.8%
same,"viability, T/C",[30],75.2%
same,"viability, T/C",[31],86.8%
same,"viability, T/C",[32],86.6%
same,"viability, T/C",[33],82.4%
same,"viability, T/C",[34],101%
same,"viability, T/C",[35],102%
same,"viability, T/C",[36],73.5%
